Results: paper PMC4452637, “Identification of positron emission tomography (PET) tracer candidates by prediction of the target-bound fraction in the brain” (EJNMMI Research, 2014)

Assays:
5HT1b = target: 5HT1b; set-up: method as in ref 10 (Additional file 1); settings: literature value; ref 10 (Additional file 1); cited from earlier work
GABA = settings: non-functioning tracer: corresponds to arbitrarily assigned low ftb 0.09, not from PET data; blank in Table S1
Sigma [1] = target: Sigma; set-up: method as in ref 77 (Additional file 1); settings: literature value; ref 77 (Additional file 1); cited from earlier work
Sigma [2] = assay: PET imaging of specific target binding (BPND, tracer functionality); type: in vivo; settings: non-functioning tracer: corresponds to arbitrarily assigned low ftb 0.09, not from PET data; blank in Table S1
[3] = Unbound fraction in brain homogenate (fu,brain); Vu,brain calculated from it with pH-partition model; settings: calculated from reported fu,brain and tracer pKa with pH-partition model (tracers with fu,brain tabulated, footnote h of Table S1)
Procedure: The unbound volume of distribution in the brain (Vu,brain) describing the extent of non-specific partitioning was determined for 31 tracers using a previously described high-throughput brain slice method [11].

[4] = set-up: method as in ref 10 (a number printed in a supplementary file, which may have a reference list of its own: not looked up in the article's list); settings: unbound fraction in homogenized brain tissue, reported; cited from earlier work
D1 = target: D1; set-up: method as in ref 52, 53 (Additional file 1); settings: literature value; 53 (Additional file 1); cited from earlier work
D2/D3 = target: D2/D3; set-up: method as in ref 59 (Additional file 1); settings: literature value; ref 59 (Additional file 1); cited from earlier work
nAChr a4b2 = target: nAChr a4b2; set-up: method as in ref 2 (Additional file 1); settings: literature value; ref 2 (Additional file 1); cited from earlier work
5HT2a = target: 5HT2a; set-up: method as in ref 7 (Additional file 1); settings: literature value; ref 7 (Additional file 1); cited from earlier work
5HT1a = target: 5HT1a; set-up: method as in ref 50 (Additional file 1); settings: literature value; ref 50 (Additional file 1); cited from earlier work

Structure (SMILES): Cc1ccc(N2CCN(C)CC2)c2oc(C(=O)Nc3ccc(N4CCOCC4)cc3)cc(=O)c12 [[^11C]AZ10419369]
- Kd (5HT1b): 370 pM

Structure (SMILES): [11CH3]N1C(=O)CN=C(c2ccccc2)c2cc(Cl)ccc21 [[^11C]Diazepam]
- BP ND (GABA): 0.1

Structure (SMILES): CCCN(CCC)CCc1ccc(OC)c(OCCc2ccccc2)c1 [[^11C]NE100]
- Kd (Sigma [1]): 1200 pM

Structure (SMILES): CCCN(CCC)CCc1ccc(O[11CH3])c(OCCc2ccccc2)c1 [[^11C]NE100]
- BP ND (Sigma [2]): 0.1
- V u,brain [3]: 96 mL/g brain
- fu,brain [4]: 0.03

Structure (SMILES): CN1CCc2cc(Cl)c(O)cc2[C@@H](c2cccc3ccoc23)C1 [[^11C]NNC112]
- Kd (D1): 180 pM

Structure (SMILES): CCCN1CCO[C@@H]2c3cc(O)ccc3CCC21 (some centres unmarked) [[^11C]PHNO]
- Kd (D2/D3): 560 pM

Structure (SMILES): Fc1ncccc1OC[C@@H]1CCN1 [[^18 F]2-FA-85380]
- Kd (nAChr a4b2): 145 pM

Structure (SMILES): O=C(c1ccc(F)cc1)C1CCN(CCn2c(=S)[nH]c3ccccc3c2=O)CC1 [[^18 F]Altanserin]
- Kd (5HT2a): 320 pM

Structure (SMILES): COc1ccccc1N1CCN(CCN(C(=O)c2ccc(F)cc2)c2ccccn2)CC1 [[^18 F]MPPF]
- Kd (5HT1a): 3300 pM
